Test results: US9604961B2, “Histone demethylase inhibitors” (Celgene Quanticel Research, Inc., priority 2012, dated 2017)

Experiments:
Type in all cases: biochemical
Jarid1B = Jarid1B (Homo sapiens (Human), UniProt Q9UGL1); experiment: Jarid1B in vitro enzyme inhibition assay (TR-FRET)
Method: This assay determines the ability of a test compound to inhibit Jarid1A, Jarid1B, JMJD2C, and JMJD2A demethylase activity.
The ability of test compounds to inhibit the activity of Jarid1B was determined in 384-well plate format under the following reaction conditions: 0.8 nM Jarid1B, 300 nM H3K4me3-biotin labeled peptide (Anaspec cat #64357), 2 μM alpha-ketoglutaric acid in assay buffer of 50 mM HEPES, pH7.3, 0.005% Brij35, 0.5 mM TCEP, 0.2 mg/ml BSA, 50 μM sodium L-ascorbate, and 2 μM ammonium iron(II) sulfate. Reaction product was determined quantitatively by TR-FRET after the addition of detection reagent Phycolink Streptavidin-allophycocyanin (Prozyme) and Europium-anti-mono- or di-methylated histone H3 lysine 4 (H3K4me1-2) antibody (PerkinElmer) in the presence of 5 mM EDTA in LANCE detection buffer (PerkinElmer) at a final concentration of 25 nM and 1 nM, respectively.
The assay reaction was initiated by the following: 2 μl of the mixture of 900 nM H3K4me3-biotin labeled peptide and 6 μM alpha-ketoglutaric acid with 2 μl of 11-point serial diluted inhibitor in 3% DMSO was added to each well of the plate, followed by the addition of 2 μl of 2.4 nM Jarid1B to initiate the reaction. The reaction mixture was incubated at room temperature for 30 minutes, and terminated by the addition of 6 μl of 5 mM EDTA in LANCE detection buffer containing 50 nM Phycolink Streptavidin-allophycocyanin and 2 nM Europium-anti-H3K4me1-2 antibody. Plates were read by EnVisionMultilabel Reader in TR-FRET mode (excitation at 320 nm, emission at 615 nm and 665 nm) after 1 hour incubation at room temperature. A ratio was calculated (665/615) for each well and fitted to determine inhibition constant (IC50).

Jarid1A = Jarid1A (Homo sapiens (Human), UniProt P29375); experiment: Jarid1A in vitro enzyme inhibition assay (TR-FRET)
Source text: The enzymatic assay of Jarid1A activity is based upon Time Resolved-Fluorescence Resonance Energy Transfer (TR-FRET) detection.

JMJD2C = JMJD2C (Homo sapiens (Human), UniProt Q9H3R0); experiment: JMJD2C in vitro enzyme inhibition assay (TR-FRET)
Chain of JMJD2C (Q9H3R0 2-372): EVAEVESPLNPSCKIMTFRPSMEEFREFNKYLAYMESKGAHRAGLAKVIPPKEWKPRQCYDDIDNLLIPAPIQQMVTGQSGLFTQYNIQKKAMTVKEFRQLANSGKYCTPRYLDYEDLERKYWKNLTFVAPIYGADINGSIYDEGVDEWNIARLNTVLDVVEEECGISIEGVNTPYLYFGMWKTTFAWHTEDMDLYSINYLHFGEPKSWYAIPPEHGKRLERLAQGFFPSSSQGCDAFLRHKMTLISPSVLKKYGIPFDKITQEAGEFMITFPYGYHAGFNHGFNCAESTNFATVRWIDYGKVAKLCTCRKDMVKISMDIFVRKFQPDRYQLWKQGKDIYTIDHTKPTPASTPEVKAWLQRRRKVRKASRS

Chain of Jarid1A (P29375 1-1090): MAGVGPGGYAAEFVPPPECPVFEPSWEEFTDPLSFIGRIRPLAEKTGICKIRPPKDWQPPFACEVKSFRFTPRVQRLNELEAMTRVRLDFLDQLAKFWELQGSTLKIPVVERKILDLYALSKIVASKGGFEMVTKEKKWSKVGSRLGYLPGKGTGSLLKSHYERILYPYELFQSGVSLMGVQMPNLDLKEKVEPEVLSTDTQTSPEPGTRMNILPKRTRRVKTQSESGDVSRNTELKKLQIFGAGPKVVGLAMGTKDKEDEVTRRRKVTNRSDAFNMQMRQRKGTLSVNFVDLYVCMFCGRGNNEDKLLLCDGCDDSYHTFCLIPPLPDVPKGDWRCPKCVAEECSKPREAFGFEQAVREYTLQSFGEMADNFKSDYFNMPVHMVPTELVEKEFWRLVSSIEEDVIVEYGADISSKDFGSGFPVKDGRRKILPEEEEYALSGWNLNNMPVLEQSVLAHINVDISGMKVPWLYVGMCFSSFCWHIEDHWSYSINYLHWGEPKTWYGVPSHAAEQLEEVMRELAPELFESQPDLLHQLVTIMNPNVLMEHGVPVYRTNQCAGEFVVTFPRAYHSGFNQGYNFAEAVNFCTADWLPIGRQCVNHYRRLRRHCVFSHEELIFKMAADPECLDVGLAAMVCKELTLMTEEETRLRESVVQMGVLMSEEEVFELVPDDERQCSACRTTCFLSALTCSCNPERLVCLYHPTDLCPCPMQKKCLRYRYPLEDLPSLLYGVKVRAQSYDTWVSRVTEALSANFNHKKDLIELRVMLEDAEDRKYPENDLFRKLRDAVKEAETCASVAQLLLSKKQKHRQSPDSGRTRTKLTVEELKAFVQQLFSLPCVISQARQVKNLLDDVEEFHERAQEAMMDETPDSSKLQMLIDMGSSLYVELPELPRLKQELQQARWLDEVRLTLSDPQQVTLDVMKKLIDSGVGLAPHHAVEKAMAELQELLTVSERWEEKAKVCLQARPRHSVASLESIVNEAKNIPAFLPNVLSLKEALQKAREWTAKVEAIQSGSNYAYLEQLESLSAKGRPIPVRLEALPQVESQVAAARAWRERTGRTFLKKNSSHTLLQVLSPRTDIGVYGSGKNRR
Chain of Jarid1B (Q9UGL1 2-751): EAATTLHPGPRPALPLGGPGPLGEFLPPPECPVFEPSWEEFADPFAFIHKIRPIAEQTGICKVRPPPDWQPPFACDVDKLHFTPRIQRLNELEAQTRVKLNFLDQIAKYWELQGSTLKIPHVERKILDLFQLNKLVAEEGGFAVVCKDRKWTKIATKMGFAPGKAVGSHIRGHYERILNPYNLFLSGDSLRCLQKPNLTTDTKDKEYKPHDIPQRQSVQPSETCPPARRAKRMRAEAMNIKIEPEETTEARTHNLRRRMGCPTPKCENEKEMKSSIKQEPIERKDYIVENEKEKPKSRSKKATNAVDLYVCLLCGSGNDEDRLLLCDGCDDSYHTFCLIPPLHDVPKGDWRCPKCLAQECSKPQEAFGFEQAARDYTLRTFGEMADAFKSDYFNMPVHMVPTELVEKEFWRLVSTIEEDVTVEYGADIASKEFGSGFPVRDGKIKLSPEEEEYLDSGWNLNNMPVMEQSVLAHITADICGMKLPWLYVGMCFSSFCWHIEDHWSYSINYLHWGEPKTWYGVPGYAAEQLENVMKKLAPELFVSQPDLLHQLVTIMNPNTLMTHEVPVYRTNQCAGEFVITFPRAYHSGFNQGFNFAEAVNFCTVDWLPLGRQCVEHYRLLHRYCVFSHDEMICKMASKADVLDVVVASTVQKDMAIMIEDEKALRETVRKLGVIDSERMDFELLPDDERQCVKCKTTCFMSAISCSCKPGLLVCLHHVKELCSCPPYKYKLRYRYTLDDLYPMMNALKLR

| Structure (SMILES) | IC50 (Jarid1B) [nM] | IC50 (Jarid1A) [nM] | IC50 (JMJD2C) [nM] |
| --- | --- | --- | --- |
| O=C(O)c1ccnc(-n2nccc2OCc2cccc(F)c2)c1 [Example 41, 2-{5-[(3-fluorobenzyl)oxy]-1H-pyrazol-1-yl}pyridine-4-carboxylic acid] | < 100 | < 100 | < 100 |
| CCc1cc(F)ccc1COc1ccnn1-c1cc(C(=O)O)ccn1 [Example 129, 2-[5-[(2-ethyl-4-fluorophenyl)methoxy]pyrazol-1-yl]pyridine-4-carboxylic acid] | < 100 | < 100 | 100 to 1000 |
| COc1cccc(COc2ccnn2-c2cc(C(=O)O)ccn2)c1 [Example 42, 2-{5-[(3-methoxybenzyl)oxy]-1H-pyrazol-1-yl}pyridine-4-carboxylic acid] | < 100 | < 100 | < 100 |
| CCc1ccc(COc2ccnn2-c2cc(C(=O)O)ccn2)c(F)c1 [Example 151, 2-[5-[(4-ethyl-2-fluorophenyl)methoxy]pyrazol-1-yl]pyridine-4-carboxylic acid] | < 100 | 100 to 1000 | 1000 to 10000 |
| CN(CCc1cnn(-c2cc(C(=O)NC#N)ccn2)c1)Cc1ccc(F)cc1 [Example 157, N-cyano-2-[4-[2-[(4-fluorophenyl)methyl-methylamino]ethyl]pyrazol-1-yl]pyridine-4-carboxamide] | < 100 | < 100 | < 100 |
| O=C(O)c1ccnc(-n2nccc2-c2ccc(F)c(F)c2)c1 [Example 15, 2-(5-(3,4-difluorophenyl)-1H-pyrazol-1-yl)isonicotinic acid] | 100 to 1000 | 100 to 1000 | 100 to 1000 |
| O=C(O)c1ccnc(-n2nccc2OCc2ccc(C3CC3)c(F)c2)c1 [Example 155, 2-[5-[(4-cyclopropyl-3-fluorophenyl)methoxy]pyrazol-1-yl]pyridine-4-carboxylic acid] | < 100 | 100 to 1000 | 1000 to 10000 |
| Cc1ccc(COc2ccnn2-c2cc(C(=O)O)ccn2)cc1F [Example 93, 2-[5-[(3-fluoro-4-methylphenyl)methoxy]pyrazol-1-yl]pyridine-4-carboxylic acid] | < 100 | < 100 | < 100 |
| N#Cc1cccc(COc2ccnn2-c2cc(C(=O)O)ccn2)c1 [Example 97, 2-[5-[(3-cyanophenyl)methoxy]pyrazol-1-yl]pyridine-4-carboxylic acid] | < 100 | < 100 | < 100 |
| CC(Oc1cc(F)ccc1COc1ccnn1-c1cc(C(=O)O)ccn1)c1ccccc1 (stereo not drawn) [Example 137, 2-[5-[[4-fluoro-2-(1-phenylethoxy)phenyl]methoxy]pyrazol-1-yl]pyridine-4-carboxylic acid] | 100 to 1000 | 100 to 1000 | 1000 to 10000 |
| O=C(O)c1ccnc(-n2nccc2-c2cccc(F)c2)c1 [Example 16, 2-(5-(3-fluorophenyl)-1H-pyrazol-1-yl)isonicotinic acid] | 100 to 1000 | 100 to 1000 | 100 to 1000 |
| CC(C)Oc1cc(Cl)ccc1COc1ccnn1-c1cc(C(=O)O)ccn1 [Example 113, 2-[5-[(4-chloro-2-propan-2-yloxyphenyl)methoxy]pyrazol-1-yl]pyridine-4-carboxylic acid] | 100 to 1000 | 100 to 1000 | 1000 to 10000 |
| O=C(O)c1ccnc(-n2nccc2OCc2ccc(Cl)cc2Cl)c1 [Example 88, 2-[5-[(2,4-dichlorophenyl)methoxy]pyrazol-1-yl]pyridine-4-carboxylic acid] | < 100 | < 100 | 100 to 1000 |
| CS(=O)(=O)c1ccc(-c2ccnn2-c2cc(C(=O)O)ccn2)cc1O [Example 28, 2-(5-(3-hydroxy-4-(methylsulfonyl)phenyl)-1H-pyrazol-1-yl)isonicotinic acid] | 100 to 1000 | 100 to 1000 | 1000 to 10000 |
| CCCCc1ccn(-c2cc(C(=O)O)ccn2)n1 [Example 45, 2-(3-butyl-1H-pyrazol-1-yl)pyridine-4-carboxylic acid] | 100 to 1000 | 100 to 1000 | 100 to 1000 |
| O=C(O)c1ccnc(-n2nccc2OCc2ccc(F)cc2F)c1 [Example 86, 2-[5-[(2,4-difluorophenyl)methoxy]pyrazol-1-yl]pyridine-4-carboxylic acid] | < 100 | < 100 | 100 to 1000 |
| O=C(O)c1ccnc(-n2nccc2OCc2cccc(Cl)c2)c1 [Example 58, 2-{5-[(3-chlorobenzyl)oxy]-1H-pyrazol-1-yl}pyridine-4-carboxylic acid] | < 100 | < 100 | < 100 |
| Cc1ccc(-c2ccnn2-c2cc(C(=O)O)ccn2)cc1O [Example 21, 2-(5-(3-hydroxy-4-methylphenyl)-1H-pyrazol-1-yl)isonicotinic acid] | < 100 | < 100 | 100 to 1000 |
| COc1ccc(COc2ccnn2-c2cc(C(=O)O)ccn2)cc1 [Example 43, 2-{5-[(4-methoxybenzyl)oxy]-1H-pyrazol-1-yl}pyridine-4-carboxylic acid] | < 100 | < 100 | 100 to 1000 |
| CC(Oc1ccnn1-c1cc(C(=O)O)ccn1)c1ccc(F)cc1 (stereo not drawn) [Example 82, 2-[5-[1-(4-fluorophenyl)ethoxy]pyrazol-1-yl]pyridine-4-carboxylic acid] | < 100 | < 100 | 100 to 1000 |
| O=C(O)c1ccnc(-n2nccc2OCc2ccncc2)c1 [Example 61, 2-[5-(pyridin-4-ylmethoxy)-1H-pyrazol-1-yl]pyridine-4-carboxylic acid] | < 100 | < 100 | < 100 |
| CCCCc1ccnn1-c1cc(C(=O)O)ccn1 [Example 44, 2-(5-butyl-1H-pyrazol-1-yl)pyridine-4-carboxylic acid] | 1000 to 10000 | 1000 to 10000 | > 10000 |
| CCc1ccc(COc2ccnn2-c2cc(C(=O)O)ccn2)cc1F [Example 96, 2-[5-[(4-ethyl-3-fluorophenyl)methoxy]pyrazol-1-yl]pyridine-4-carboxylic acid] | < 100 | < 100 | 100 to 1000 |
| COc1cc(-c2ccnn2-c2cc(C(=O)O)ccn2)ccc1C [Example 20, 2-(5-(3-methoxy-4-methylphenyl)-1H-pyrazol-1-yl)isonicotinic acid] | 100 to 1000 | 100 to 1000 | 1000 to 10000 |
| CS(=O)(=O)c1ccc(-c2ccnn2-c2cc(C(=O)O)ccn2)cc1 [Example 19, 2-(5-(4-(methylsulfonyl)phenyl)-1H-pyrazol-1-yl)isonicotinic acid] | 100 to 1000 | 100 to 1000 | 1000 to 10000 |
| O=C(O)c1ccnc(-n2nccc2OC2CCc3cc(F)ccc32)c1 (stereo not drawn) [Example 146, 2-[5-[(5-fluoro-2,3-dihydro-1H-inden-1-yl)oxy]pyrazol-1-yl]pyridine-4-carboxylic acid] | 100 to 1000 | 100 to 1000 | 100 to 1000 |
| O=C(O)c1ccnc(-n2nccc2OCc2ccc(Cl)c(OCC(F)(F)F)c2)c1 [Example 141, 2-[5-[[4-chloro-3-(2,2,2-trifluoroethoxy)phenyl]methoxy]pyrazol-1-yl]pyridine-4-carboxylic acid] | < 100 | < 100 | 100 to 1000 |
